Structures can show the parent of a compound that is named as a salt.

The target of the first experiment is Human immunodeficiency virus type 1 reverse transcriptase (Human immunodeficiency virus 1, UniProt Q72547).
Settings: not given
Take RAUWOLFIA SERPENTINA: the IC50 was above 200 µg/mL.

Still in this experiment, the particulars now being: read-out: IC50 (converted).
With `COc1cc2c(c3c1/c(=N\N=c1/c4ccccc4n(C)c4c5c(cc(OC)c14)OC(C)(C)C=C5)c1ccccc1n3C)C=CC(C)(C)O2` [ACRONYCINE AZINE], the IC50 is above 313 µM.

As to `C[n+]1cc2c3c(ccc2c2ccc4cc5c(cc4c21)OCO5)OCO3` [SANGUINARINE NITRATE], the IC50 is below 380 µM.

Turning to `C=C(C)[C@H]1Cc2c(ccc3c2O[C@@H]2COc4cc(OC)c(OC)cc4[C@@H]2C3=O)O1` [ROTENONE], the IC50 is above 507 µM.

As to `CN1[C@@H]2C[C@@H](OC(=O)[C@H](CO)c3ccccc3)C[C@H]1[C@@H]1O[C@@H]12` [SCOPOLAMINE HYDROBROMIDE], the IC50 is above 456 µM.

Consider `COc1cc2cc(c1Cl)N(C)C(=O)C[C@H](OC(=O)[C@H](C)N(C)C(C)=O)[C@]1(C)O[C@H]1[C@H](C)[C@@H]1C[C@@](O)(NC(=O)O1)[C@H](OC)/C=C/C=C(\C)C2` [MAYTANSINE], for which the IC50 was above 289 µM.

`COC(=O)[C@H]1[C@H]2C[C@@H]3c4[nH]c5ccccc5c4CCN3C[C@H]2C[C@@H](OC(=O)c2cc(OC)c(OC)c(OC)c2)[C@@H]1OC` [DESERPIDINE]: the IC50 was above 346 µM.

With `COc1cc2c(cc1OC)N1C(=O)C[C@]34C=CCN5CC[C@@H]2[C@@H](CC3)C514`, the IC50 was above 567 µM.

For the compound `CC1(C)CC[C@]2(CO)[C@H](O)C[C@]3(C)C(=CC[C@@H]4[C@@]5(C)CC[C@H](O)C(C)(C)[C@@H]5CC[C@]43C)[C@@H]2C1` [PRIMULAGENIN], the IC50 is above 436 µM.

For `COc1ccc2c(c1OC)C(=O)O[C@@H]2[C@H]1c2cc3c(cc2CCN1C)OCO3` [HYDRASTINE], the half-maximal inhibitory concentration (IC50) is above 522 µM.

As for `COc1ccc2[nH]c3c(C)c4ccncc4c(C)c3c2c1`, the IC50 is below 543 µM.

Turning to `COc1cc2c(cc1OC)[C@@]13CCN4CC5=CCO[C@H]6CC(=O)N2[C@H]1[C@H]6[C@H]5C[C@H]43` [BRUCINE], the IC50 is above 507 µM.

`COC(=O)[C@H]1[C@H]2C[C@H]3c4[nH]c5ccccc5c4CCN3C[C@@H]2CC[C@@H]1O` [CORYNANTHEINE]: the IC50 was above 564 µM.

Take `C=C[C@H]1C[N@@]2CC[C@H]1C[C@@H]2[C@@H](O)c1ccnc2ccccc12` [CINCHONINE]: the half-maximal inhibitory concentration (IC50) was above 679 µM.

Take `CC[C@]1(O)C[C@@H]2CN(CCc3c([nH]c4ccccc34)[C@@](C(=O)OC)(c3cc4c(cc3OC)N(C)[C@H]3[C@@](O)(C(=O)OC)[C@H](OC(C)=O)[C@]5(CC)C=CCN6CC[C@]43[C@@H]65)C2)C1` [VINBLASTINE]: the IC50 is above 247 µM.

For `CN[C@@H](C)[C@H](O)c1ccccc1` [EPHEDRINE SULFATE], the 50% inhibitory concentration (IC50) was above 933 µM.

`C/C=C1/CN2[C@H]3C[C@@H]1[C@@H](CO)[C@@H]2Cc1c3[nH]c2ccc(OC)cc12` [LOCHNERINE]: the IC50 is above 616 µM.

With `CC[C@@]1(O)C(=O)OCc2c1cc1n(c2=O)Cc2cc3ccccc3nc2-1` [CAMPTOTHECIN], the IC50 was above 574 µM.

As to `COC(=O)C1=CO[C@H](C)[C@@H]2CN3CCc4c([nH]c5ccccc45)[C@@H]3C[C@H]12` [RAUNITICINE], the IC50 is above 567 µM.

Consider `COC(=O)C1=CCCN(C)C1` [ARECOLINE HYDROBROMIDE], for which the IC50 was above 847 µM.

As to `COc1cc2c(cc1OC)[C@@H]1Cc3ccc(OC)c(OC)c3CN1CC2` [TETRAHYDROPALMATINE], the IC50 was above 563 µM.

For the compound `COc1cc(O)c2c(=O)cc(-c3ccc(O)cc3)oc2c1` [GENKWANIN], the IC50 was above 704 µM.

As to `COC(=O)CC1(O)C=CC(=O)C=C1` [JACARANONE], the IC50 was above 1100 µM.

On to `COc1cc2c3cc1Oc1cc(ccc1O)C[C@@H]1c4c(cc(OC)c(O)c4Oc4ccc(cc4)C[C@@H]3N(C)CC2)CC[N+]1(C)C`, for which the IC50 was above 310 µM.

Turning to `COc1c([N+](=O)[O-])c2c(c3c1c(=O)c1ccccc1n3C)C=CC(C)(C)O2` [NITROACRONYCINE], the IC50 was above 546 µM.

On to `C=C1C[C@@]23CC[C@H]4[C@@](C)(CCC[C@@]4(C)C(=O)O[C@@H]4O[C@H](CO)[C@@H](O)[C@H](O)[C@H]4O)[C@@H]2CC[C@]1(O[C@@H]1O[C@H](CO)[C@@H](O)[C@H](O)[C@H]1O[C@@H]1O[C@H](CO)[C@@H](O)[C@H](O)[C@H]1O)C3` [STEVIOSIDE], for which the 50% inhibitory concentration (IC50) is above 248 µM.

As for `CC(C)=CCC[C@](C)(O[C@@H]1O[C@H](CO[C@@H]2O[C@H](CO)[C@@H](O)[C@H](O)[C@H]2O)[C@@H](O)[C@H](O)[C@H]1O)[C@H]1CC[C@]2(C)[C@@H]1[C@H](O)C[C@@H]1[C@@]3(C)CC[C@H](O[C@@H]4O[C@H](CO)[C@@H](O)[C@H](O)[C@H]4O[C@@H]4O[C@H](CO)[C@@H](O)[C@H](O)[C@H]4O)C(C)(C)[C@@H]3CC[C@]12C` [GINSENOSIDE RB1], the IC50 is above 180 µM.

Consider `C/C=C1/C[C@@H](C)[C@](O)(CO)C(=O)OCC2=CCN3CC[C@@H](OC1=O)[C@@H]23` [RETRORSINE], for which the IC50 is above 569 µM.

`C=C(C)[C@@H]1[C@H]2OC(=O)[C@@H]1[C@]1(O)C[C@H]3OC34C(=O)O[C@H]2[C@@]41C.CC(C)(O)[C@@H]1[C@H]2OC(=O)[C@@H]1[C@]1(O)C[C@H]3OC34C(=O)O[C@H]2[C@@]41C` (stereo not given in full) [PICROTOXIN]: the IC50 is above 332 µM.

`C/C=C1/CN(C=O)[C@H]2Cc3c([nH]c4ccccc34)C(=O)C[C@@H]1[C@@H]2C(=O)OC` [PERIFORMYLINE]: the IC50 is above 546 µM.

Consider `C1CCN2C[C@]34C[C@H](C[C@@H]5CCCN([C@@H]6CCC[C@@H]3N6)[C@H]54)[C@H]2C1` [PANAMINE DIPERCHLORATE], for which the IC50 is above 387 µM.

Take `COc1c2ccoc2nc2c(OC(C)=O)cccc12` [ACETYLROBUSRINE]: the IC50 was above 777 µM.

With `COC(=O)[C@@H]1[C@@H](OC)[C@H](OC(=O)c2cc(OC)c(OC)c(OC)c2)C=C2CN3CCc4c([nH]c5ccccc45)[C@@H]3C[C@@H]21` [DESERPIDEINE HYDROCHLORIDE], the IC50 is above 326 µM.

On to `COc1cc2c(OC)c3ccoc3nc2cc1O`, for which the IC50 is above 816 µM.

Turning to `CN1Cc2c(ccc3c2OCO3)[C@@H]2[C@H]1c1cc3c(cc1C[C@@H]2O)OCO3` [CHELIDONINE], the IC50 was below 566 µM.

In the case of `C=C1C[C@@]23CC[C@H]4[C@@](C)(CCC[C@@]4(C)C(=O)O)[C@@H]2CC[C@]1(O)C3` [STEVIOL], the half-inhibitory concentration (IC50) was above 628 µM.

Consider `COc1cc(O)c2c(=O)cc(-c3ccc(O)c(OC)c3)oc2c1` [VELUTIN], for which the IC50 is above 636 µM.

As for `COc1ccc(Cc2nccc3cc(OC)c(OC)cc23)cc1OC` [PAPAVERINE], the IC50 was below 589 µM.

Regarding `C=C(C)C(O)C(O)c1cc2ccc(=O)oc2cc1OC` (stereo not given) [THAMNOSMONIN], the IC50 was above 724 µM.

For the compound `CC(C)[C@](O)(C(=O)OCC1=CC[N+]2([O-])CC[C@@H](O)[C@@H]12)[C@H](C)O` (stereo not given in full) [INDICINE N-OXIDE], the IC50 was above 634 µM.

As for `COc1cc([C@H]2OC[C@H]3[C@@H]2CO[C@@H]3c2cc(OC)c(O[C@@H]3O[C@H](CO)[C@@H](O)[C@H](O)[C@H]3O)c(OC)c2)cc(OC)c1O[C@@H]1O[C@H](CO)[C@@H](O)[C@H](O)[C@H]1O` [LIRIODENDRIN], the IC50 was above 269 µM.

With `CC[C@H]1[C@@H]2C[C@H]3[C@@H]4N(C)c5ccccc5[C@]45C[C@@H]([C@@H]2[C@H]5O)N3[C@@H]1O` [AJMALINE], the IC50 was above 613 µM.

Take `COc1ccc2c(c1OC)C[N+]1(C)CCc3cc4c(cc3C1C2)OCO4` (stereo not given) [CANADINE METHCHLORIDE]: the IC50 was above 513 µM.

Take `C[C@@H]1O[C@@H](O[C@H]2C[C@@H](O)[C@]3(CO)[C@H]4[C@H](O)C[C@]5(C)[C@@H](C6=CC(=O)OC6)CC[C@]5(O)[C@@H]4CC[C@]3(O)C2)[C@H](O)[C@H](O)[C@H]1O` [OUABAIN]: the IC50 is above 342 µM.

Take `CC[C@H]1CN2CCc3cc(OC)c(OC)cc3[C@@H]2C[C@@H]1CC1=NCCc2cc(OC)c(OC)cc21`: the IC50 was 17.3 µM.

Turning to `COC(=O)C[C@](O)(CCCC(C)(C)O)C(=O)O[C@@H]1C(OC)=C[C@]23CCCN2CCc2cc4c(cc2[C@H]13)OCO4` [OMACETAXINE MEPESUCCINATE], the IC50 was above 367 µM.

Take `CC(C)=CCC[C@](C)(O[C@@H]1O[C@H](CO)[C@@H](O)[C@H](O)[C@H]1O)[C@H]1CC[C@]2(C)[C@@H]1[C@H](O)C[C@@H]1[C@@]3(C)CC[C@H](O)C(C)(C)[C@@H]3[C@@H](O[C@@H]3O[C@H](CO)[C@@H](O)[C@H](O)[C@H]3O[C@@H]3O[C@@H](C)[C@H](O)[C@@H](O)[C@H]3O)C[C@]12C` [GINSENOSIDE RE]: the IC50 is above 211 µM.

Take `COc1cc2c(c3c1c(=S)c1ccccc1n3C)C=CC(C)(C)O2` [THIOACRONYCINE]: the half-inhibitory concentration (IC50) is above 593 µM.

On to `O=C1C[C@]23C=CCN4CC[C@H]5c6cc7c(cc6N1[C@@]5(CC2)[C@@H]43)OCO7` [SCHIZOZYGINE], for which the IC50 was above 595 µM.

Consider `COC(=O)C1=CO[C@@H](C)[C@@H]2Cn3ccc4c5ccccc5nc-4c3C[C@H]12` [ALSTONINE HYDROCHLORIDE], for which the IC50 was below 390 µM.

On to `C[n+]1cccc(C(=O)[O-])c1` [TRIGONELLINE HYDROCHLORIDE], for which the half-maximal inhibitory concentration (IC50) was above 1150 µM.

`O=c1ccc2cc(O[C@@H]3O[C@H](CO)[C@@H](O)[C@H](O)[C@H]3O)c(O)cc2o1` [ESCULIN]: the IC50 is above 588 µM.

As for `COc1c2occc2c(CC(O)C(C)(C)O)c2ccc(=O)oc12` (stereo not given), the IC50 was above 628 µM.

On to `CNC[C@H](O)c1cccc(O)c1` [PHENYLEPHRINE], for which the IC50 was above 1200 µM.

Turning to `CC[C@H]1CN2CCc3cc(OC)c(OC)cc3[C@@H]2C[C@@H]1C[C@H]1NCCc2cc(OC)c(OC)cc21`, the IC50 is above 387 µM.

Consider `COc1cc2c(c(OC)c1OC)-c1ccc(OC)c(=O)cc1[C@@H](NC(C)=O)CC2` [COLCHICINE], for which the IC50 is above 501 µM.

Consider `CC(C)(O)CC[C@@H](O)[C@](C)(O)[C@H]1CC[C@@]2(O)C3=CC(=O)[C@]4(O)C[C@@H](O)[C@@H](O)C[C@]4(C)[C@H]3CC[C@]12C` [POLYPODIN], for which the IC50 is above 403 µM.

As for `COc1ccc2c(c1OC)CN1CCc3cc4c(cc3C1=C2)OCO4` [DIHYDROBERBERINE], the IC50 is above 593 µM.

Take `CC[C@H](/C=C/[C@@H](C)[C@H]1CC[C@H]2[C@@H]3CC=C4C[C@@H](O)CC[C@]4(C)[C@H]3CC[C@]12C)C(C)C` [STIGMASTEROL]: the IC50 is above 485 µM.

Consider `COc1ccc2c(c[n+](C)c3c4cc5c(cc4ccc23)OCO5)c1OC` [CHELERYTHRINE CHLORIDE], for which the half-inhibitory concentration (IC50) is below 521 µM.
